Test results as given in patent US20240376151A1, “STAPLED PEPTIDES AND METHODS THEREOF” (FOG PHARMACEUTICALS, INC., priority 2022, published 2024).
Like-named read-outs stand apart in the source and are kept apart here. Each block holds one molecule with its values, some of them ahead of it.

Assays:
PD-L1 [1] = target: T1, PD-L1 (Homo sapiens, UniProt Q9NZQ7); conditions: TR-FRET
PD-L1:PD-1 binding = PD-L1:PD-1 binding (Homo sapiens, UniProt Q9NZQ7); conditions: competition ELISA, n=2
PD-L1 [2] = target: T1, PD-L1; conditions: SPR
PD-L1 [3] = target: T1, PD-L1; conditions: analytical SEC and TR-FRET experiments
beta-catenin [4] = target: T2, beta-catenin (Homo sapiens, UniProt P35222); test: SPR binding of Helicons to immobilized beta-catenin
T2 construct: made in house; host or cells: E. coli BL21 (DE3) pLysS
T2 sequence (P35222 134-665): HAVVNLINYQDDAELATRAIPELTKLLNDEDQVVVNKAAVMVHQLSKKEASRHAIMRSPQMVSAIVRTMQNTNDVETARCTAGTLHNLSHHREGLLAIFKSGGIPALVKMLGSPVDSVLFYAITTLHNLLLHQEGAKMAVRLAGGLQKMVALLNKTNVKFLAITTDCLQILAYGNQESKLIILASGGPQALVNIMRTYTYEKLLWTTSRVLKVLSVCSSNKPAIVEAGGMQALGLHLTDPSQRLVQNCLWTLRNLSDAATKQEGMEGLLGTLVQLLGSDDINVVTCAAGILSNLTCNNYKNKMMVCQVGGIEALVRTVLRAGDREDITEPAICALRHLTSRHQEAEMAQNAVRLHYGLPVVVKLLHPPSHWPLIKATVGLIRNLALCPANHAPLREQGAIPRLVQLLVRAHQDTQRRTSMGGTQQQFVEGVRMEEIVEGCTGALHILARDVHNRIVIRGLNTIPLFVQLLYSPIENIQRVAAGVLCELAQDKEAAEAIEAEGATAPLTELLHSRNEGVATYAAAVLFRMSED

beta-catenin [5] = target: T3, beta-catenin (Homo sapiens, UniProt P35222); test: Competition FP, beta-catenin vs Axin-derived Helicon probe; assay type: binding
T3 construct: 10 nM full-length β-catenin (Uniprot ID P35222); 6×His-thrombin-T7-TEV (N); made in house; host or cells: E. coli BL21 (DE3) pLysS

beta-catenin [6] = target: T3, beta-catenin; test: Competition FP, beta-catenin vs beta-catenin-binding domain of TCF4; conditions: read-out: IC50 (μM, TCF)
β-catenin:MDM2 complex = target: T4, β-catenin:MDM2 complex (Homo sapiens, UniProt P35222+Q00987); test: FP analysis of the β-catenin:MDM2 complex; assay type: biochemical; conditions: read-out: EC50 of cooperative interaction between MDM2 and the Armadillo domain of β-catenin
T4 construct: 6×His-yBBr-TEV (N); 6×His-TEV (N, cleaved yes); made in house; host or cells: E. coli BL21 (DE3) pLysS (beta-catenin); E. coli BL21 (DE3) (MDM2)

MDM2 and β-catenin = target: T5, MDM2 and β-catenin (Homo sapiens, UniProt P35222+Q00987); test: Direct FP ternary complex formation, fluorescent MDM2 and beta-catenin; assay type: biochemical; conditions: fluorescent p53-binding domain of MDM2
T5 construct: 6×His-TEV (N, cleaved yes); 6×His-yBBr-TEV (N); made in house; host or cells: E. coli BL21 (DE3) (MDM2); E. coli BL21 (DE3) pLysS (β-catenin)

β-catenin:MDM4 complex = target: T6, β-catenin:MDM4 complex (Homo sapiens, UniProt O15151+P35222, C17S); test: FP analysis of the β-catenin:MDM4 complex; assay type: biochemical; conditions: direct FP assay
T6 construct: 6×His-yBBr-TEV (N); 6×His-yBBr-3C (N, cleaved yes); made in house; host or cells: E. coli BL21 (DE3) pLysS (beta-catenin); E. coli BL21 (DE3) (MDM4)
T6 sequence (P35222 134-665): T2 sequence (P35222 134-665)
T6 sequence (O15151 14-111 C17S): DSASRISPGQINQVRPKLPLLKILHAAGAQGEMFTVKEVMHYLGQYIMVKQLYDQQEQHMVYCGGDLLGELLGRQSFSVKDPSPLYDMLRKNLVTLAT

MDM4 = target: T7, MDM4 (Homo sapiens, UniProt O15151, C17S); test: Direct FP ternary complex formation, fluorescent MDM4 and beta-catenin; assay type: biochemical; conditions: fluorescent p53-binding domain of MDM4
T7 construct: 6×His-yBBr-3C (N, cleaved yes); made in house; host or cells: E. coli BL21 (DE3)
T7 sequence (O15151 14-111 C17S): T6 sequence (O15151 14-111 C17S)

VHL-ELOBC [7] = target: T8, VHL-ELOBC (Homo sapiens, UniProt P40337); test: Competition FP with VHL-binding fluorescent probe HXC78; conditions: n=3
T8 construct: VHL (Uniprot ID: P40337, residues 54-213) with an N-terminal 6×His-TEV tag; 6×His-TEV (N); made in house; host or cells: E. coli BL21 (DE3)

CDK2 = CDK2 (Homo sapiens, UniProt P24941); test: CDK2 kinase activity, luminescence-based assay that detects ADP production; assay type: biochemical
From the text: Among other things, two distinct clusters of Helicons that bound both CDK2 and CDK2 in complex with its partner CyclinE1, but not to CDK1 or CDK1 in complex with its partner CyclinA2 (C51 and C52). […] In some embodiments, one or more (e.g., 1, 2 or 3) or all residues to the N-terminus side of X^4 are absent. In some embodiments, one or more (e.g., 1, 2 or 3) or all residues to the C-terminus side of X^11 are absent.

VHL-ELOBC [8] = target: T8, VHL-ELOBC; test: Naive Library Presenter Screening (phage, NGS), VHL-ELOBC; assay type: binding; conditions: VHL target concentration 1000 nM

Molecule: CC[C@H](C)[C@@H]1NC(=O)[C@H](C)NC(=O)[C@H](C)NC(=O)[C@H](Cc2c[nH]c3ccccc23)NC(=O)[C@H](CCC(=O)O)NC(=O)[C@@H](NC(=O)[C@H](CC(C)C)NC(=O)[C@H](CCC(=O)O)NC(=O)[C@H](CO)NC(=O)[C@H](C)NC(=O)[C@@H]2CCCN2C(=O)[C@H](CC(=O)O)NC(C)=O)CSCC(=O)Nc2ccc(cc2)NC(=O)CSC[C@@H](C(=O)N[C@@H](CC(=O)O)C(=O)N[C@@H](CC(C)C)C(=O)N[C@H](C(N)=O)C(C)C)NC(=O)[C@H](Cc2c[nH]cn2)NC1=O [FP01822]
Kd (beta-catenin [4]): 3 µM
IC50 (beta-catenin [5]): 3.7 µM

Molecule: CC(=O)N1CCC[C@H]1C(=O)N[C@@H](CC(N)=O)C(=O)N[C@@H](CC(C)C)C(=O)N[C@H](C(=O)NCC(=O)N[C@@H](C)C(=O)N[C@@H](CC(=O)O)C(=O)N[C@H]1CSCC(=O)Nc2ccc(cc2)NC(=O)CSC[C@@H](C(=O)N[C@@H](CC(C)C)C(=O)N[C@@H](CCC(N)=O)C(=O)N[C@@H](Cc2ccccc2)C(=O)N[C@@H](CC(C)C)C(=O)N[C@@H](Cc2c[nH]c3ccccc23)C(=O)N[C@@H](CC(=O)O)C(N)=O)NC(=O)[C@H](CCC(N)=O)NC(=O)[C@H](Cc2c[nH]c3ccccc23)NC(=O)[C@H](C)NC(=O)[C@H](C)NC(=O)[C@@H]2CCCN2C(=O)[C@H](Cc2ccccc2)NC1=O)[C@@H](C)O [Helicon H334]
EC50 (β-catenin:MDM2 complex): 0.01 to 0.1 µM
ternary complex formation, MDM2 and β-catenin (MDM2 and β-catenin): could promote ternary complex formation
promotion of interaction between MDM4 and β-catenin (β-catenin:MDM4 complex): not between MDM4 and β-catenin
ternary complex formation with MDM4 (MDM4): did not occur

Molecule: Cc1ncsc1-c1ccc(CNC(=O)[C@@H]2C[C@@H](O)CN2C(=O)[C@@H](NC(=O)C2(C#N)CC2)C(C)(C)C)cc1 [VH298, (2S,4R)-1-((S)-2-(1-Cyanocyclopropanecarboxamido)-3,3-dimethylbutanoyl)-4-hydroxy-N-(4-(4-methylthiazol-5-yl)benzyl)pyrrolidine-2-carboxamide]
competition with HXC78 for binding VHL-ELOBC (VHL-ELOBC [7]): potently competes

Molecule: Ac-WWVCAIAAIECSD-NH2 [FP33215]
inhibition of the kinase activity of CDK2 (CDK2): neither FP19711 nor FP33215 appeared to inhibit

The next lines start with the values.

induction of PD-L1 dimerization in solution (PD-L1 [1]): induce PD-L1 dimerization
inhibition of PD-L1:PD-1 binding (PD-L1:PD-1 binding): inhibits PD-L1:PD-1 binding
competition with PD-1 for binding to PD-L1 (PD-L1 [2]): compete more potently
PD-L1 dimerization (PD-L1 [3]): Evidence of PD-L1 dimerization
Molecule: Cc1cc(CN[C@H](CO)C(=O)O)c(OCc2cccc(C#N)c2)cc1OCc1cccc(-c2ccc3c(c2)OCCO3)c1C [BMS-1001]

Kd (beta-catenin [4]; SPR, beta-catenin, read-out: KD (μM, SPR)): > 10 µM
IC50 (beta-catenin [6]): > 10 µM
Molecule: CC[C@H](C)[C@H](NC(=O)[C@H](CS)NC(=O)[C@H](CC(=O)O)NC(=O)[C@H](CC(=O)O)NC(=O)[C@H](CCC(N)=O)NC(=O)[C@H](C)NC(=O)[C@@H]1CCCN1C(=O)[C@H](CC(=O)O)NC(C)=O)C(=O)N[C@@H](CC(C)C)C(=O)N[C@@H](C)C(=O)N[C@@H](C)C(=O)N[C@@H](Cc1c[nH]cn1)C(=O)N[C@H](C(=O)N[C@@H](CS)C(=O)N[C@@H](C)C(=O)N[C@@H](CC(C)C)C(=O)N[C@@H](Cc1c[nH]c2ccccc12)C(N)=O)C(C)C [FP49433]

interaction data at Target Concentration 1000 (VHL-ELOBC [8]): 0
Molecule: DPAWWYCLDAAYDCDHT

interaction data at Target Concentration 1000 (VHL-ELOBC [8]): 0
Molecule: DPAWYACMDAARVCDRT
